Earlier results, collected in patent US20020054922A1, “Cosmetic composition and method” (priority 2000, published 2002).

Test system: skin punch biopsy wound
Conditions: 25 micrograms estradiol per 24 hours by skin patch

In the case of `C[C@]12CC[C@@H]3c4ccc(O)cc4CC[C@H]3[C@@H]1CC[C@@H]2O` [estrogen, estradiol], the “fibronectin levels compared to placebo” value (day 7) is listed as “increased fibronectin levels”, the “wound size compared to placebo” value (day 7, aged men and women) is listed as “decrease in wound size” and the “collagen levels compared to placebo” value (days 7 and 80) is listed as “increased collagen levels”.
